In patent US20220202827A1, “Enhancement of Melanocyte Migration Using ROCK Inhibitors” (The General Hospital Corporation, priority 2019, published 2022):

Assays:
Format in all cases: cell-based, human
[1] = test system: primary melanocytes; experiment: Yield of primary melanocytes from dissociated epidermis cultured in TIVA ± Y-27632
Experimental: Foreskin tissues were trimmed to remove the fat layer and then incubated with Dispase solution (2.5 mg/ml in PBS, overnight at 4° C.). On the second day, the epidermis was peeled from the dermis with fine forceps and chopped into small pieces, incubated with 0.05% trypsin for 15-30 min, neutralized with 10% FBS in DMEM, filtered ([…], Millipore), centrifuged, and rinsed with PBS. In the conventional method of melanocyte isolation, the epidermal cells were plated into culture vessels with melanocyte culture medium TIVA (Ham's F12, Mediatech, Inc., Herndon, Va., USA; 10% fetal bovine serum; 1× penicillin/streptomycin/glutamine, Invitrogen, Carlsbad, Calif., USA; 1×10^−4 M 3-isobutyl-1-methyl xanthine (IBMX), Sigma, St Louis, Mo., USA; 50 ng/ml 12-O-tetradecanoyl phorbol-13-acetate (TPA), Sigma; 2 μM Na3VO4; 1×10^−3 M N^6,2′-O-dibutyryladenosine 3′,5′-cyclic monophosphate (dbcAMP), Sigma) (Halaban et al., 2000; Yokoyama et al., 2008). The culture medium was changed once every 2 days until confluency was reached. For the new method, the isolated melanocytes were seeded with TIVA medium plus 10 μM Y-27632 (Y0503, Sigma) for two days, then the culture medium was replaced with standard TIVA without Y-27632 every 2 days, as in the conventional method. […] For isolation of keratinocytes, the dissociated epidermal cells were seeded with keratinocyte culture medium (K-SFM, Gibco/Thermo Fisher Scientific, Waltham, Mass., USA) into culture dishes pretreated with coating matrix containing type-I collagen (Gibco, R-011-K) and the medium was changed every 2 days. In order to understand the role of Y-27632 in promoting melanocyte growth, different media were used in different experiments depending on the experimental needs; information about the medium and protocol used for each experiment is listed in the following table.
To test whether Y-27632 can enhance the yield of primary melanocytes, dissociated cells isolated from epidermis were plated with melanocyte culture medium (TWA) containing 10 μM Y-27632 and incubated for 48 h, and then the medium was replaced with TIVA without Y-27632. […] The differences were significant at 5 or more days after plating, and at 16 days, about 5 times more melanocytes were recovered from Y-27632-treated cultures compared with untreated cultures. We further tested whether longer treatment with Y-27632 had the same effect.

[2] = test system: SCF (KITLG); experiment: qRT-PCR analysis of SCF mRNA expression in keratinocytes
Experimental: FIGS. 1A-C. Keratinocytes that survive culture in TWA medium with Y-27632 can enhance melanocyte growth through a paracrine signaling pathway. A. Equal numbers of pure passage 3 melanocytes were plated with TWA medium in 4 groups with addition(s) as indicated: 1) Y-27632 (10 μM) alone (Y in graph), 2) passage 3 keratinocytes alone (K), 3) keratinocytes and Y-27632 (10 μM) (K+Y), and 4) no addition (negative control, con). Relative fold changes in melanocyte proliferation compared to the negative control were determined by counting the number of melanocytes at 24 h and 48 h after plating. […] Relative fold changes in melanocyte proliferation compared to the negative control were determined by counting the number of melanocytes at 24 h and 48 h after plating. […]
FIGS. 2A-E. Y-27632 can increase SCF expression in keratinocytes, which can promote melanocyte growth. […] Relative fold changes in melanocyte proliferation compared to the control medium were determined by counting the numbers of melanocytes. *p<0.05, **p<0.01 compared with the control; #p<0.05 comparing the SCF-treated group with the IgG-treated group.
Total RNA was extracted from cells using a QIAGEN RNeasy Plus Mini Kit (QIAGEN, Hilden, Germany) according to manufacturer's instructions. […] Data were acquired and analyzed with 7500 Fast System SDS software (Life Tedmologies, Grand Island, N.Y., USA). […]

[3] = test system: passage 3 melanocytes; experiment: Melanocyte proliferation in co-culture with keratinocytes in TIVA medium (cell counting); settings: 24 h and 48 h
Experimental: (§1) FIGS. 1A-C. Keratinocytes that survive culture in TWA medium with Y-27632 can enhance melanocyte growth through a paracrine signaling pathway. A. Equal numbers of pure passage 3 melanocytes were plated with TWA medium in 4 groups with addition(s) as indicated: 1) Y-27632 (10 μM) alone (Y in graph), 2) passage 3 keratinocytes alone (K), 3) keratinocytes and Y-27632 (10 μM) (K+Y), and 4) no addition (negative control, con). Relative fold changes in melanocyte proliferation compared to the negative control were determined by counting the number of melanocytes at 24 h and 48 h after plating. B. Conditioned TWA media were obtained from the 4 groups of passage 3 melanocyte cultures in (A) at 48 h after plating. Then, equal numbers of passage 3 melanocytes were plated in 4 groups, each with one of the conditioned medium. Relative fold changes in melanocyte proliferation compared to the negative control were determined by counting the number of melanocytes at 24 h and 48 h after plating. C. […]
(§2) Therefore, we hypothesized that the surviving keratinocytes in TIVA medium with Y-27632 can promote proliferation of melanocytes by secreting growth factors into the medium. […] To identify potential growth factors, quantitative RT-PCR analysis was performed for expression of six factors that have been reported to be secreted by cultured human keratinocytes and could enhance melanocyte growth.

[4] = test system: melanocytes; experiment: Transwell migration assay of melanocytes
Experimental: A. Representative images of migrated melanocytes (dark grey) in the transwell migration assay with different conditions as indicated. […] C. The transwell migration assay was performed under the indicated conditions. ROCKi: Rock inhibitor Y-27632 (10 μM), SIKi: SIK inhibitors with different concentrations as indicated.
To test the effect of Y-27632 on melanocyte cell migration, 1×10^5 cells were cultured in the upper chamber of a transwell migration apparatus. The lower chamber was supplemented either with 254 (melanocyte culture medium) without FBS (control) or 254 media plus seeding human keratinocytes (HKC) in the bottom or 254 medium with […] Y-27632 plus seeding keratinocytes in the bottom (Y-27632+HKC) or 254 medium in the presence of 1% FBS. The chambers were incubated for 24 hours at 37° C. After removal of non-migrated cells on top of the filter, cells that had migrated through the membrane were fixed in 4% paraformaldehyde washed and then stained with 0.1% crystal violet (FIG. 3A). The number of cells that had migrated through the membrane was counted in six randomly selected high-power microscopic fields and the average number of cells were shown in FIG. 3B. […]

[5] = test system: SCF; experiment: Western blot analysis of SCF protein expression in keratinocytes; settings: K-SFM with or without Y-27632 for 24, 48 or 72 h
Experimental: FIGS. 2A-E. Y-27632 can increase SCF expression in keratinocytes, which can promote melanocyte growth. A. RT-PCR analysis of SCF mRNA expression in passage 3 keratinocytes grown in K-SFM with (Y) or without (con) Y-27632 for the indicated times. **p<0.01 comparing Y-treated with the corresponding control group. B. Western blot analysis of SCF protein expression with or without Y-27632 for 24, 48 or 72 h. C. RT-PCR analysis of SCF mRNA expression in keratinocytes grown in K-SFM with increasing concentrations of Y-27632 for 48 h. **p<0.01, ***p<0.005 comparing Y-27632-treated with untreated cells (0). D. gRT-PCR analysis of SCF mRNA expression in keratinocytes grown in K-SFM, 72 h after transfection of ROCK1 and ROCK2 siRNAs individually and together. **p<0.01 when compared with the control cells transfected with scramble siRNA (siCtrl). […] Relative fold changes in melanocyte proliferation compared to the control medium were determined by counting the numbers of melanocytes. *p<0.05, **p<0.01 compared with the control; #p<0.05 comparing the SCF-treated group with the IgG-treated group.
To test whether Y-27632 can enhance expression of SCF in keratinocytes, we cultured keratinocytes in the keratinocyte culture condition (K-SFM) with or without Y-27632 and measured SCF expression.

[6] = test system: passage 3 melanocytes; experiment: Melanocyte proliferation in conditioned K-SFM media from keratinocytes ± Y-27632, ± SCF antibody; settings: K-SFM conditioned 48 h by keratinocytes with Y-27632; melanocytes cultured 48 h
Experimental: FIGS. 2A-E. Y-27632 can increase SCF expression in keratinocytes, which can promote melanocyte growth. A. RT-PCR analysis of SCF mRNA expression in passage 3 keratinocytes grown in K-SFM with (Y) or without (con) Y-27632 for the indicated times. **p<0.01 comparing Y-treated with the corresponding control group. B. Western blot analysis of SCF protein expression with or without Y-27632 for 24, 48 or 72 h. C. RT-PCR analysis of SCF mRNA expression in keratinocytes grown in K-SFM with increasing concentrations of Y-27632 for 48 h. **p<0.01, ***p<0.005 comparing Y-27632-treated with untreated cells (0). D. gRT-PCR analysis of SCF mRNA expression in keratinocytes grown in K-SFM, 72 h after transfection of ROCK1 and ROCK2 siRNAs individually and together. **p<0.01 when compared with the control cells transfected with scramble siRNA (siCtrl). E. Passage 3 keratinocytes were cultured in K-SFM with or without 1′-27632 for 48 h, and then the conditioned media were collected. […] Relative fold changes in melanocyte proliferation compared to the control medium were determined by counting the numbers of melanocytes. *p<0.05, **p<0.01 compared with the control; #p<0.05 comparing the SCF-treated group with the IgG-treated group. […]

[7] = test system: passage 3 melanocytes; experiment: Melanocyte proliferation in conditioned TIVA media (cell counting)
Experimental: as §1, §2

Compound: C[C@@H](N)[C@H]1CC[C@H](C(=O)Nc2ccncc2)CC1.Cl.Cl [Y-27632, (+)-(R)-trans-4-(1-aminoethyl)-N-(4-pyridyl)cyclohexanecarboxamide dihydrochloride]
- melanocytes recovered compared with untreated cultures ([1]; 10 μM Y-27632 for first 48 h, at 16 days): about 5 times
- duration of treatment generating the highest yield of melanocytes ([1]; continuous treatment with Y-27632, incubation until Day 12): 4 days
- yield of melanocytes relative to the untreated group ([1]; continuous treatment with Y-27632 for up to 12 days): increased the yield of melanocytes relative to the untreated group
- melanocytes observed in treated versus untreated cultures ([1]; dissociated epidermal cells, TIVA with 10 μM Y-27632 for 48 h, then TIVA alone, differences significant at 5 or more days after plating): more melanocytes in cultures treated with Y-27632 than in cultures without Y-27632
- SCF mRNA level in keratinocytes ([2]; passage 3 keratinocytes in K-SFM with or without Y-27632): can increase both mRNA and protein levels of SCF
- expression of six melanocyte growth-enhancing factors (RT-PCR) ([2]; passage 3 keratinocytes in TIVA+Y-27632, 0-48 h): only SCF (KITLG) expression increased significantly
- growth of melanocytes ([3]; Y-27632 (10 μM) alone, no keratinocytes): neither Y-27632 alone nor keratinocytes medium alone could promote the growth of melanocytes
- melanocyte proliferation ([3]; keratinocytes and Y-27632 (10 μM) (K+Y)): could significantly increase melanocyte proliferation
- melanocyte migration ([4]; ROCKi (10 uM Y-27632), SIKi at different concentrations, alone or combined (FIG. 3C)): could enhances melanocyte migration
- migration of melanocytes through the membrane ([4]; lower chamber: 254 medium with 10 μM Y-27632 plus keratinocytes (HKC), 24 hours): significantly induced the migration of melanocytes
- SCF protein level in keratinocytes [5]: can increase both mRNA and protein levels of SCF
- melanocyte growth with conditioned medium [6]: enhancement of melanocyte growth
- melanocyte proliferation ([7]; conditioned medium from cultures of keratinocytes in TIVA+Y-27632): significantly enhanced melanocyte proliferation
- melanocyte proliferation ([7]; conditioned medium from cultures of melanocytes with TIVA and Y-27632 alone): did not increase melanocyte proliferation
